Experiments:
Type in all cases: cell-based
[1] = tested on: E. coli DH5α; assay: Antibacterial activity: MIC and growth curve against E. coli DH5α in 96-well plate; conditions: minimal inhibitory concentration against E. coli DH5α; 96-well plate, 5×10^5 CFU/mL, 37° C., judged after 8 h
Summary of the method: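 Log-phase DH5α (OD600 about 0.5, 37° C, 185 rpm in LB) was pelleted, resuspended in fresh LB and seeded at 5×10^5 CFU/mL with recombinant protein at 50, 25 and 12.5 μg/mL (two-fold series), in triplicate. Plates were shaken at 175 rpm, 37° C, and OD600 was read every 30 min. MIC was the lowest concentration with no growth.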

[2] = tested on: E. coli BL21; assay: MIC against Gram-negative bacteria: E. coli BL21; conditions: for MIC against E. coli BL21 / MIC (μg/mL) E. coli BL21: 5×10^5 CFU/mL
Summary of the method: (§1)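 Inocula prepared by growing LB cultures at 37° C to 0.5 McFarland, centrifuging at 4000×g, and resuspending in fresh medium. Final density 5×10^5 CFU/mL per well with two-fold dilutions of purified EGF domain protein; shaking incubation at 37° C.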

[3] = tested on: Pseudomonas aeruginosa; assay: MIC against Gram-negative bacteria: Pseudomonas aeruginosa; conditions: for MIC against P. aeruginosa / MIC (μg/mL) P. aeruginosa: 5×10^5 CFU/mL
Summary of the method: as §1

[4] = tested on: Klebsiella pneumonia; assay: MIC against Gram-negative bacteria: Klebsiella pneumonia; conditions: for MIC against K. pneumonia / MIC (μg/mL) K. pneumonia: 5×10^5 CFU/mL
Summary of the method: as §1

[5] = tested on: Enterobacter cloacae; assay: MIC against Gram-negative bacteria: Enterobacter cloacae; conditions: for MIC against E. cloacae / MIC (μg/mL) E. cloacae: 5×10^5 CFU/mL
Summary of the method: as §1

[6] = tested on: Aeromonas hydrophila; assay: MIC against Gram-negative bacteria: Aeromonas hydrophila; conditions: for MIC against A. hydrophila / MIC (μg/mL) A. hydrophila: 5×10^5 CFU/mL
Summary of the method: as §1

[7] = tested on: Citrobacter diversus; assay: MIC against Gram-negative bacteria: Citrobacter diversus; conditions: for MIC against C. diversus / MIC (μg/mL) C. diversus: 5×10^5 CFU/mL
Summary of the method: as §1

[8] = tested on: Moraxella catarrhalis; assay: MIC against Gram-negative bacteria: Moraxella catarrhalis; conditions: for MIC against M. catarrhalis / MIC (μg/mL) M. catarrhalis: 5×10^5 CFU/mL
Summary of the method: as §1

[9] = tested on: Proteus mirabilis; assay: MIC against Gram-negative bacteria: Proteus mirabilis; conditions: for MIC against P. mirabilis / MIC (μg/mL) P. mirabilis: 5×10^5 CFU/mL
Summary of the method: as §1

[10] = tested on: Proteus vulgaris; assay: MIC against Gram-negative bacteria: Proteus vulgaris; conditions: for MIC against P. vulgaris / MIC (μg/mL) P. vulgaris: 5×10^5 CFU/mL
Summary of the method: as §1

[11] = tested on: Serratia marcescens; assay: MIC against Gram-negative bacteria: Serratia marcescens; conditions: for MIC against S. marcescens / MIC (μg/mL) S. marcescens: 5×10^5 CFU/mL
Summary of the method: as §1

[12] = E. coli BL21, 10 h cultivation at 37° C.
[13] = P. aeruginosa, 10 h cultivation at 37° C.
[14] = K. pneumonia, 10 h cultivation at 37° C.
[15] = E. cloacae, 10 h cultivation at 37° C.
[16] = A. hydrophila, 10 h cultivation at 37° C.
[17] = C. diversus, 10 h cultivation at 37° C.
[18] = M. catarrhalis, 10 h cultivation at 37° C.
[19] = P. mirabilis, 10 h cultivation at 37° C.
[20] = P. vulgaris, 10 h cultivation at 37° C.
[21] = S. marcescens, 10 h cultivation at 37° C.

PRT517 (CQCFGHAESCDDVTGECLNCKDHTGGPYCDKCLPGFYGEPTKGTSEDCQP; listed as Homo sapiens)
25 µg/mL: MIC [1] | MIC against P. aeruginosa ([3]; 96-well plate, 37° C., 10 h) | MIC against E. cloacae ([5]; 96-well plate, 37° C., 10 h) | MIC against C. diversus ([7]; 96-well plate, 37° C., 10 h) | MIC against P. mirabilis ([9]; 96-well plate, 37° C., 10 h) | MIC against S. marcescens ([11]; 96-well plate, 37° C., 10 h)
12.5 µg/mL: MIC against E. coli BL21 ([2]; 96-well plate, 37° C., 10 h) | MIC against A. hydrophila ([6]; 96-well plate, 37° C., 10 h) | MIC against P. vulgaris ([10]; 96-well plate, 37° C., 10 h)
50 µg/mL: MIC against K. pneumonia ([4]; 96-well plate, 37° C., 10 h) | MIC against M. catarrhalis ([8]; 96-well plate, 37° C., 10 h)

PRT452 (DIDECTEMPFVCSQKCENVIGSYICKCAPGYLREPDGKTC; listed as Homo sapiens)
50 µg/mL: MIC against E. cloacae ([5]; 96-well plate, 37° C., 10 h) | MIC against C. diversus ([7]; 96-well plate, 37° C., 10 h) | MIC against S. marcescens ([11]; 96-well plate, 37° C., 10 h)
12.5 µg/mL: MIC [1] | MIC against E. coli BL21 ([2]; 96-well plate, 37° C., 10 h) | MIC against P. aeruginosa ([3]; 96-well plate, 37° C., 10 h) | MIC against K. pneumonia ([4]; 96-well plate, 37° C., 10 h) | MIC against A. hydrophila ([6]; 96-well plate, 37° C., 10 h) | MIC against P. mirabilis ([9]; 96-well plate, 37° C., 10 h)
25 µg/mL: MIC against M. catarrhalis ([8]; 96-well plate, 37° C., 10 h) | MIC against P. vulgaris ([10]; 96-well plate, 37° C., 10 h)

PRT1462 (CQCNLHGSVNKFCNPHSGQCECKKEAKGLQCDTCRENFYGLDVTNCKA; listed as Homo sapiens)
12.5 µg/mL: MIC [1] | MIC against K. pneumonia ([4]; Klebsiella pneumonia, 10 h cultivation at 37° C.) | MIC against E. cloacae ([5]; Enterobacter cloacae, 10 h cultivation at 37° C.) | MIC against A. hydrophila ([6]; Aeromonas hydrophila, 10 h cultivation at 37° C.) | MIC against M. catarrhalis ([8]; Moraxella catarrhalis, 10 h cultivation at 37° C.) | MIC against P. vulgaris ([10]; Proteus vulgaris, 10 h cultivation at 37° C.)
25 µg/mL: MIC against E. coli BL21 [2, 12] | MIC against C. diversus ([7]; Citrobacter diversus, 10 h cultivation at 37° C.) | MIC against P. mirabilis ([9]; Proteus mirabilis, 10 h cultivation at 37° C.) | MIC against S. marcescens ([11]; Serratia marcescens, 10 h cultivation at 37° C.)
100 µg/mL: MIC against P. aeruginosa ([3]; Pseudomonas aeruginosa, 10 h cultivation at 37° C.)

PRT1017 (NPDNCVSHQCQNGGTCQDGLDTYTCLCPETWTGWDCS; listed as Homo sapiens)
12.5 µg/mL: MIC [2, 12] | MIC [3, 13] | MIC [4, 14] | MIC [5, 15] | MIC [6, 16] | MIC [7, 17] | MIC [8, 18] | MIC [10, 20]
50 µg/mL: MIC [1] | MIC [9, 19] | MIC [11, 21]

PRT798 (FGQDCAQLCSCANNGTCSPIDGSCQCFPGWIGKDCS; listed as Homo sapiens)
12.5 µg/mL: MIC [1] | MIC (μg/mL) P. aeruginosa [3, 13] | MIC (μg/mL) E. cloacae [5, 15] | MIC (μg/mL) C. diversus [7, 17] | MIC (μg/mL) P. mirabilis [9, 19]
25 µg/mL: MIC (μg/mL) E. coli BL21 [2, 12] | MIC (μg/mL) S. marcescens [11, 21]
50 µg/mL: MIC (μg/mL) K. pneumonia [4, 14] | MIC (μg/mL) A. hydrophila [6, 16] | MIC (μg/mL) M. catarrhalis [8, 18] | MIC (μg/mL) P. vulgaris [10, 20]

PRT39 (PVRDCSRNNGGCTRNFKCVSDRQVDSSGCVCPEELKPMKDGSGCY; listed as Homo sapiens)
25 µg/mL: MIC (μg/mL) E. coli BL21 ([2]; E. coli BL21, 96-well plate, 37° C., 10 h) | MIC (μg/mL) E. cloacae ([5]; Enterobacter cloacae, 96-well plate, 37° C., 10 h) | MIC (μg/mL) P. mirabilis ([9]; Proteus mirabilis, 96-well plate, 37° C., 10 h)
50 µg/mL: MIC [1] | MIC (μg/mL) P. aeruginosa ([3]; Pseudomonas aeruginosa, 96-well plate, 37° C., 10 h) | MIC (μg/mL) K. pneumonia ([4]; Klebsiella pneumonia, 96-well plate, 37° C., 10 h) | MIC (μg/mL) A. hydrophila ([6]; Aeromonas hydrophila, 96-well plate, 37° C., 10 h) | MIC (μg/mL) C. diversus ([7]; Citrobacter diversus, 96-well plate, 37° C., 10 h)
12.5 µg/mL: MIC (μg/mL) M. catarrhalis ([8]; Moraxella catarrhalis, 96-well plate, 37° C., 10 h) | MIC (μg/mL) P. vulgaris ([10]; Proteus vulgaris, 96-well plate, 37° C., 10 h) | MIC (μg/mL) S. marcescens ([11]; Serratia marcescens, 96-well plate, 37° C., 10 h)

Source: US9833497B2, “Human originated EGF domain proteins and use of the same” (CHENGDU SOURCEBIO LIMITED-LIABILITY COMPANY, priority 2013, dated 2017)
